Test results taken from PubChem BioAssay (NCI).
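Compound exposure: 48 hours, 5 concentrations, 96-well plates. The concentration for 50% growth inhibition is given as GI50. TGI: total growth inhibition.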

What was measured:
Test in all cases: NCI-60 cell line screen, 48 h
[1] = tested on: ACHN renal
[2] = tested on: EKVX NSCLC
[3] = tested on: HCC-2998 colon
[4] = tested on: MOLT-4 leukemia
[5] = tested on: NCI-H460 lung
[6] = tested on: RXF 393 renal
[7] = tested on: U251 CNS
[8] = tested on: UACC-257 melanoma
[9] = tested on: A498 renal
[10] = tested on: SF-539 CNS

Row | SMILES | TGI [1] [µM] | TGI [2] [µM] | TGI [3] [µM] | TGI [4] [µM] | TGI [5] [µM] | TGI [6] [µM] | TGI [7] [µM] | TGI [8] [µM] | TGI [9] [µM] | TGI [10] [µM] | GI50 [9] [µM] | GI50 [1] [µM] | GI50 [2] [µM] | GI50 [3] [µM] | GI50 [4] [µM] | GI50 [5] [µM] | GI50 [6] [µM] | GI50 [10] [µM] | GI50 [7] [µM] | GI50 [8] [µM]
1 | O=C(c1ccccc1)c1nnn(Cc2cccc(Cl)c2)c1C(=O)c1ccccc1 | > 100 | > 100 | > 100 | > 100 | > 100 | > 100 | > 100 | > 100 |  |  |  |  |  |  |  |  |  |  |  | 
2 | C=CCCc1cc(OC)ccc1CN(C)C(C)(C)CO | > 100 | > 100 |  |  | > 100 | > 100 | > 100 | > 100 | > 100 | > 100 |  |  |  |  |  |  |  |  |  | 
3 | Cc1ccc(S(=O)(=O)NCCCN(CCCNS(=O)(=O)c2ccc(C)cc2)S(=O)(=O)c2ccc(C)cc2)cc1 | > 100 |  | > 100 | > 100 | > 100 | > 100 | > 100 | > 100 |  | > 100 |  |  |  |  |  |  |  |  |  | 
4 | COc1ccc(C(=O)O/N=C2\CCCC\C2=C/c2ccccc2)cc1 | > 100 | > 100 | > 100 | > 100 | > 100 |  | > 100 |  | > 100 | 81.2 |  |  |  |  |  |  |  |  |  | 
5 | CCCCc1ccc2nc(NC(=O)OC)[nH]c2c1 | > 64.4 | > 100 | 3.4 | > 100 | 6.17 | 20.1 | 19.4 |  | 0.996 | 0.294 | 0.04 | 0.077 | 0.855 | 0.0966 | 0.0382 | 0.0378 | 0.0929 | 0.0366 | 0.0533 | 
6 | Cc1c2c(n3c(nc4ccccc43)c1C#N)SCC2 | > 10 | > 10 |  | > 10 | > 10 |  | > 10 | > 10 | > 10 | > 10 |  |  |  |  |  |  |  |  |  | 
7 | CC(=O)Oc1c(-c2ccccc2)[nH]c2cc([N+](=O)[O-])c(/C(Cl)=C/c3ccccc3)cc12 | 46.6 | 59.3 |  | 13.8 | 70.2 |  | 19.8 | 27.7 | 23.6 |  |  |  |  |  |  |  |  |  |  | 
8 | CC/C(=C(\c1ccccc1)c1ccc(OCCN(C)C)cc1)c1ccccc1 |  |  |  |  |  |  |  |  |  |  | 2.3 |  | 4.74 | 0.878 |  |  | 1.39 |  |  | 0.971
9 | C#Cc1cccc(NC(=O)Nc2ccccc2NC(=O)CCl)c1 | 30.6 | 66.2 | 29.8 | > 82.5 | 33.9 | 26.1 | 33.1 | > 82.5 |  | 32.4 |  | 14.5 | 19.3 | 15.3 | 25.6 | 16.5 | 12.1 | 13.8 | 15.4 | 26.7
10 | COC1OC(OC)C2C(c3c(C)cc(C)cc3C)=NOC12 (configuration not stated) | > 100 | > 100 | > 100 | > 100 | > 100 | > 100 | > 100 | > 100 |  |  |  |  |  |  |  |  |  |  |  | 
11 | CCN(CC)CCn1c(=N)n(CC(O)c2ccc(Cl)c(Cl)c2)c2ccccc21 (configuration not stated) | 24.4 |  | 5.3 | 13.1 | 17.9 | 10.9 | 9.04 |  | 15.6 | 10.1 | 3.07 | 11.9 |  | 2.34 | 3.1 | 4.97 | 2.8 | 2.86 | 2.82 | 
